From US12297192B2, “Crystal form of pyrimidine sulfonamide compound and preparation method therefor” (WUXI BIOCITY BIOPHARMACEUTICS CO., LTD., priority 2019, dated 2025)

Legend:
[1] = Pharmacokinetic evaluation in rats; format: in vivo, SD rats
Procedure: The animals used in this study were SD male rats. The LC/MS/MS method was applied to quantify the plasma drug concentrations in rats at different time points after administration of the test compound intravenously or orally by gavage in order to evaluate the pharmacokinetic characteristics of the test compound in rats.
Sprague Dawley (SD) rats (male, 200-300 g, 7-10 weeks old, Beijing Vital River or Shanghai SLAC).
A clear solution of the test compound was administered to SD rats by tail vein injection (overnight fasting) or oral gavage (overnight fasting). At 0 hour (before administration through tail vein injection) and 0.0833, 0.25, 0.5, 1, 2, 4, 6, 8 and 24 hours after administration through tail vein injection, 200 μL of blood was collected by jugular venipuncture into anticoagulation tubes supplemented with EDTA-K2 (Jiangsu Kangjian Medical Supplies Co., Ltd.). The mixture in the anticoagulation tube was vortexed thoroughly at 4° C. and then centrifuged at 13,000 rpm for 10 minutes to obtain the plasma. At 0 hours (before administration by oral gavage) and 0.5, 1, 2, 4, 6, 8 and 24 hours after administration by oral gavage, 200 μL of blood was collected by jugular venipuncture into anticoagulation tubes supplemented with EDTA-K2 (Jiangsu Kangjian Medical Supplies Co., Ltd.). The mixture in the anticoagulation tube was vortexed thoroughly and the plasma was then centrifuged at 13,000 rpm for 10 minutes to obtain the plasma. Blood concentrations were determined by LC/MS/MS and the relevant pharmacokinetic parameters were calculated using WinNonlin™ Version 6.3 (Pharsight, Mountain View, CA) pharmacokinetics software with a non-compartmental model linear-log trapezoidal method.

[2] = target: T1, CYP2C9 (Homo sapiens, UniProt P11712); assay: Human liver microsomal cytochrome P450 isozyme inhibition; format: in vitro ADME; conditions: human liver microsomes
T1 construct: Mixed human liver microsomes (HLM) were purchased from Corning Inc; tissue Corning Inc; host or cells: pooled human liver microsomes
T1 sequence (P11712 whole entry): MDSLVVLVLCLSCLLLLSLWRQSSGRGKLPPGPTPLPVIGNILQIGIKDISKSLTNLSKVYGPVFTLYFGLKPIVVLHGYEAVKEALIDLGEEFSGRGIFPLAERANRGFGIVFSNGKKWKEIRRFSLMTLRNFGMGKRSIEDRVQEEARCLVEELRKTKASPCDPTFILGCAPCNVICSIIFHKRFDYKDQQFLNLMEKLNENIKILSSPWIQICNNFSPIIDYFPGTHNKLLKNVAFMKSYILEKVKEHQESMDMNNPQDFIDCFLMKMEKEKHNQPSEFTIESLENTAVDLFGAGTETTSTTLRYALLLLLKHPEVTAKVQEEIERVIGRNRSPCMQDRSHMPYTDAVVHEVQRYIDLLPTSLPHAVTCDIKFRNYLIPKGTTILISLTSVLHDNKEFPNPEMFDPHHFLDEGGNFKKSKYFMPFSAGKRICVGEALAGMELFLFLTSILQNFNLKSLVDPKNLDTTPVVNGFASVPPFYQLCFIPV
Procedure: (§1) The aim of the project was to evaluate the inhibitory activity of the test article against human liver microsomal cytochrome P450 isozymes (CYP1A2, CYP2C9, CYP2C19, CYP2D6 and CYP3A4) using a 5-in-1 probe substrate for CYP isozymes.
(§2) Mixed human liver microsomes (HLM) were purchased from Corning Inc. (Steuben, New York, USA) and stored at less than −80° C. prior to use. A diluted series of concentrations of the stock solution of the test article was added to an incubation system containing human liver microsomes, probe substrate and cofactors of the circulatory system. The control without the test article but with solvent was used as the enzyme activity control (100%). The concentration of metabolites generated by the probe substrate in the samples was determined by liquid chromatography-tandem mass spectrometry (LC-MS/MS). A non-linear regression analysis of the mean percentage activity of the test article against concentration was performed using SigmaPlot (V.11). The IC50 values were calculated using a three- or four-parameter inverse hyperbolic logarithmic function.

[3] = target: T2, CYP1A2 (Homo sapiens, UniProt P05177); assay: as above; format: in vitro ADME; conditions: human liver microsomes
T2 construct: Mixed human liver microsomes (HLM) were purchased from Corning Inc; tissue Corning Inc; host or cells: pooled human liver microsomes
T2 sequence (P05177 1-516): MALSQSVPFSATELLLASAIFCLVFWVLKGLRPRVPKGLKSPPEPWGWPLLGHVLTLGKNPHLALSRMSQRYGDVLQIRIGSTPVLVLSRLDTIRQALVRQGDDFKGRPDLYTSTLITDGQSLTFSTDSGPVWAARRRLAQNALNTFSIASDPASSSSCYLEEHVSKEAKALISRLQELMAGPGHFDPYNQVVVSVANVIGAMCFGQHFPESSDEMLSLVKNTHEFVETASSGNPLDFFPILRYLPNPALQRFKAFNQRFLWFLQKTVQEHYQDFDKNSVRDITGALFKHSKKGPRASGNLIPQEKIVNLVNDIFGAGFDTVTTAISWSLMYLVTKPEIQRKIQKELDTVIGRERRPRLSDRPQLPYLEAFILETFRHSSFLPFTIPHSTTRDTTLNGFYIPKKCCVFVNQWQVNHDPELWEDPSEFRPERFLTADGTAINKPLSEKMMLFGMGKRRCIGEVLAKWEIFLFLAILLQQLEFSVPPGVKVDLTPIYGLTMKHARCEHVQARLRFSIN
Procedure: as §1, §2

[4] = target: T3, CYP2C19 (Homo sapiens, UniProt P33261); assay: as above; format: in vitro ADME; conditions: human liver microsomes
T3 construct: Mixed human liver microsomes (HLM) were purchased from Corning Inc; tissue Corning Inc; host or cells: pooled human liver microsomes
T3 sequence (P33261 whole entry): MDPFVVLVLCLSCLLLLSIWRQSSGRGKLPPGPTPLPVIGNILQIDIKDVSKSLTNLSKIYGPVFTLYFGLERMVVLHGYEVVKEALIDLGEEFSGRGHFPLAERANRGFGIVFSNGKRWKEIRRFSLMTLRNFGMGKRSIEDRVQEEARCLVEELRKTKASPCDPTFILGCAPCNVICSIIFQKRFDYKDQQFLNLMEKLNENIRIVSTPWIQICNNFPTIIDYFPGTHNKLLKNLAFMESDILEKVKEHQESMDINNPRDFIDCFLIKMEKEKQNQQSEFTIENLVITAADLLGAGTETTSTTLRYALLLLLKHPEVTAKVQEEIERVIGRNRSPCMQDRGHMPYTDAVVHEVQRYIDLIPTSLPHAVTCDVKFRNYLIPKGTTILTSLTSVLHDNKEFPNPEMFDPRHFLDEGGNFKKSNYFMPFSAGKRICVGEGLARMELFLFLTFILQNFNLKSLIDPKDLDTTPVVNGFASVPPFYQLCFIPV
Procedure: as §1, §2

| SMILES | Area under the drug concentration-time curve ([1]; intravenous injection 2 mg/kg) [µM·h] | Plasma clearance ([1]; intravenous injection 2 mg/kg, 2 mg/kg) [mL/min/kg] | Area under the drug concentration-time curve ([1]; oral 10 mg/kg) [µM·h] | Peak concentration ([1]; oral 10 mg/kg) [µM] | Peak time ([1]; oral 10 mg/kg) [h] | Bioavailability ([1]; oral 10 mg/kg, 10 mg/kg) [%] | Inhibition on the isozyme CYP2C9 (in words) [2] | IC50 [3] [µM] | IC50 [4] [µM] |
| --- | --- | --- | --- | --- | --- | --- | --- | --- | --- |
| COCCNS(=O)(=O)Nc1ncnc(OCCOc2ncc(Br)cn2)c1-c1ccc2c(c1)OCO2 [Compound of formula (I)] | 16.09 | 3.71 | 60.22 | 31.99 | 0.25 | 74.9 | – | – | – |
| CCCNS(=O)(=O)Nc1ncnc(OCCOc2ncc(Br)cn2)c1-c1ccc(Br)cc1 [Macitentan, reference compound] | – | – | – | – | – | – | moderate inhibition | 37.4 | 31.7 |
